From patent US10307418B2, “Azole pharmaceutical formulations for parenteral administration and methods for preparing and using the same as treatment of diseases sensitive to azole compounds” (Platform Brightworks Two, Ltd., priority 2010, dated 2019)
≈ marks a conversion by molar mass, not a printed value. Where two headings read alike, the source gives them in different places.

Tests used:
[1] = test system: Candida cruzei (ATCC strain 6258); test: Yeast susceptibility test, MIC (CLSI standard); type: cell-based; settings: tested range 38 μg/mL to 0.03 μg/mL, read out at 24 hours, average of three experiments
Procedure: (§1) Briefly, susceptibility tests were set-up using a standardized methodology (CLSI […] standard). Drugs were diluted into RPMI-Mops medium (Yeast One Broth (Sensititer, product Y3462, Trek Diagnostic Systems, Cleveland, Ohio) Sensititer Lot number 151416SA-expiration date 2011-01). Two different strains of yeast were tested, the standardized evaluation/read out was performed at 24 hours after the start of each culture. The tests were repeated twice and all MIC (minimum inhibitory concentration) values are reported as an average of the three experiments.

Candida parapsilosis = test: Yeast susceptibility test, MIC (CLSI standard); type: cell-based; settings: tested range 38 μg/mL to 0.03 μg/mL, read out at 24 hours, average of three experiments
Procedure: as §1

[2] = test system: Aspergillus fumigatus (ATCC strain 90906); test: Mold susceptibility test, MIC (CLSI M38A); type: cell-based
Procedure: Two hyaline molds were tested with a standard read out at 48 hrs:
Tested drug range: 75 μg/mL to 0.07 μg/mL
To further determine the antifungal activity of the compounds in the new formulation systems we investigated the efficacy of the various agents against additional strains of mucor and Aspergillus (9/-16-9/20/2010) (The Rhizomucor was a clinical isolate from a patient isolate) and the Aspergillus fumigatus (ATCC strain 90906) used was a repeat from the previously described experiment. Again, the susceptibility tests were set-up using the standardized test method (CLSI M38A). The used drugs were provided in the described H3 final use-formulation that has been previously described. All drugs were diluted in RPMI-Mops medium (YeastOne, Sensititer Lot 151416SA, expiration date January 2011).
As before two different molds were tested with a standard read out at 48 hr: • Drug dilution range 75 μg/mL to 0.07 μg/mL. • Aspergillus fumigatus (ATCC strain 90906) Zygomycete (Clinical Lab isolate, MDACC) […]

[3] = mouse, in vivo, 5 mg/kg
Procedure: (§2) Swiss Webster mice were used for pharmacokinetic studies of ITZA and its analogs. The dilation of the vein was accomplished by warming up the mice using a heat lamp. […] Mice were allowed to recover and blood samples were obtained through cardiac puncture under general anesthesia with Isoflurane/oxygen by vaporizer at various time points. Plasma was obtained by centrifugation of blood sample at 3,200 rpm for 5 min. at 4° C. Plasma proteins were precipitated by adding acetonitrile (twice the volume of plasma). The mixture was vortexed for 30 seconds and centrifuged for 5 min. at 14,000 rpm. The supernatant was saved and was injected into the HPLC to determine the respective drug concentrations.
(§3) Unless specified, the analogous experiments were performed using POSA as an alternative to ITZA; Swiss Webster mice of both sexes with a body weight of 25-30 g were used for the in vivo pharmacology experiments (Harlan-Sprague-Dawley, Houston, Tex.). The animals were allowed a minimum of 7 days after arrival to accommodate to the new environment and allowed free access to commercial feed and tap water prior to and during the experimentation period. The animals were housed in an Association for the Assessment and Accreditation of Laboratory Animal Care International (AAALAC)-approved facility that meets the requirements of the USDA, NIH, and DHHS.
(§4) The ITZA dose of 5 mg/kg BW was determined to be a suitable test dose that could be administered to the mice as a slow (3-4 min) IV bolus injection without requiring sedation, but could be performed with only minimal physical restraint of the animals in a standard funnel-type cage.
(§5) The ITZA was formulated in the H3 solvent system described above as the preferred solvent to a stock concentration of 4-5 mg/mL and then diluted with NS (ratio 1:1) so the intended dose (5.0 mg/kg BW) could be injected in a tail vein in a total volume of approximately 100 μL. […] No sedative premedication was used for the mice in this experiment to avoid the possible induction of microsomal liver enzymes that could modify ITZA metabolism. Thus, the animals were unanesthetized, being only physically restrained during and immediately following the drug injection.
(§6) Blood samples (0.5-1.0 mL) were drawn through cardiac puncture into heparinized tubes at selected time points prior to the drug infusion (“blank”), and from 5 min to 1 hour after drug injection for determination of ITZA concentrations, and for 5 min to about 7 hrs in the POSA experiment. The mice were exposed to 2% -4% isoflurane for general anesthesia. Blood samples were obtained through cardiac puncture and immediately deposited in heparinized microcentrifuge tubes.

[4] = Stability of ITZA/POSA in solvent vehicles (HPLC); type: physicochemical
[5] = cited from earlier work
[6] = Plasma pharmacology after IV injection in mice; settings: IV dose of 5 mg/kg
Procedure: as §2, §3, §4, §5, §6

CCC(C)n1ncn(-c2ccc(N3CCN(c4ccc(OCC5COC(Cn6cncn6)(c6ccc(Cl)cc6Cl)O5)cc4)CC3)cc2)c1=O (centres unmarked) [ITZA, itraconazole]
MIC [1]: 0.07 mg/L (≈ 0.0992 µM)
MIC ([1]; listed as ITZA*): 0.15 mg/L (≈ 0.213 µM)
MIC (Candida parapsilosis): 0.03 mg/L (≈ 0.0425 µM)
MIC (Candida parapsilosis; listed as ITZA*): 0.07 mg/L (≈ 0.0992 µM)
MIC ([2]; Aspergillus fumigatus, ATCC90906, 48 h, tested range 75 μg/mL to 0.07 μg/mL, read out at 48 hrs, first experiment, read-out: MIC): 1.2 mg/L (≈ 1.7 µM)
MIC ([2]; extended mold testing (repeat), H3 final use-formulation, range 75 μg/mL to 0.07 μg/mL, 48 hr): 1.2 mg/L (≈ 1.7 µM)
MIC ([2]; extended mold testing (repeat), H3 final use-formulation, range 75 μg/mL to 0.07 μg/mL, 48 hr, listed as ITZA*): 0.3 mg/L (≈ 0.425 µM)
MIC ([2]; tested range 75 μg/mL to 0.07 μg/mL, read out at 48 hrs, first experiment): 0.6 mg/L (≈ 0.85 µM)
tolerability of IV injection (in words) [3]: well accepted
Stability (% remaining) ([4]; 2-6 mg/mL in composite (prototype) solvent vehicles, more than three days or 72 hours at RT): more than 90%
Stability (%) ([4]; H3D, 4 mg/mL, 0 hr): 100%
Stability (%) ([4]; H3D, 4 mg/mL, 2 hr): 102%
Stability (%) ([4]; H3D, 4 mg/mL, 4 hr): 101%
Stability (%) ([4]; H3D, 4 mg/mL, 8 hr): 99%
Stability (%) ([4]; H3D, 4 mg/mL, 24 hr): 97%
stability of ITZA ([4]; H3D, day 0): 100%
stability of ITZA ([4]; H3D, day 1): 94%
stability of ITZA ([4]; H3D, day 2): 95%
stability of ITZA ([4]; H3D, day 3): 93%
stability of ITZA ([4]; H3D, day 4): 94%
stability of ITZA ([4]; H3D, day 5): 98%
stability of ITZA ([4]; H3D/5% dex., day 0): 100%
stability of ITZA ([4]; H3D/5% dex., day 1): 100%
stability of ITZA ([4]; H3D/5% dex., day 2): 103%
stability of ITZA ([4]; H3D/5% dex., day 4): 99%
stability of ITZA ([4]; H3D/5% dex., day 5): 93%
stability of ITZA ([4]; H3D/10% Dex., day 0): 100%
stability of ITZA ([4]; H3D/10% Dex., day 1): 98%
stability of ITZA ([4]; H3D/10% Dex., day 2): 98%
stability of ITZA ([4]; H3D/10% Dex., day 3): 102%
stability of ITZA ([4]; H3D/10% Dex., day 4): 99%
stability of ITZA ([4]; H3D/10% Dex., day 5): 105%
stability of ITZA ([4]; H3D/sal., day 0): 100%
stability of ITZA ([4]; H3D/sal., day 1): 107%
stability of ITZA ([4]; H3D/sal., day 2): 107%
stability of ITZA ([4]; H3D/sal., day 3): 110%
stability of ITZA ([4]; H3D/sal., day 5): 90%
stability of ITZA ([4]; H3G, day 0): 100%
stability of ITZA ([4]; H3G, day 1): 103%
stability of ITZA ([4]; H3G, day 2): 100%
stability of ITZA ([4]; H3G, day 3): 89%
stability of ITZA ([4]; H3G, day 4): 103%
stability of ITZA ([4]; H3G, day 5): 106%
stability of ITZA ([4]; H3G/5% Dex., day 0): 100%
stability of ITZA ([4]; H3G/5% Dex., day 1): 102%
stability of ITZA ([4]; H3G/5% Dex., day 2): 109%
stability of ITZA ([4]; H3G/5% Dex., day 3): 94%
stability of ITZA ([4]; H3G/5% Dex., day 4): 99%
stability of ITZA ([4]; H3G/5% Dex., day 5): 42%
stability of ITZA ([4]; H3G/10% dex., day 0): 100%
stability of ITZA ([4]; H3G/10% dex., day 2): 102%
stability of ITZA ([4]; H3G/10% dex., day 3): 98%
stability of ITZA ([4]; H3G/10% dex., day 4): 107%
stability of ITZA ([4]; H3G/10% dex., day 5): 31%
stability of ITZA ([4]; H3G/sal., day 0): 100%
stability of ITZA ([4]; H3G/sal., day 1): 95%
stability of ITZA ([4]; H3G/sal., day 2): 94%
stability of ITZA ([4]; H3G/sal., day 3): 80%
stability of ITZA ([4]; H3G/sal., day 4): 70%
stability of ITZA ([4]; H3G/sal., day 5): 38%
Stability (%) ([4]; Solvent H3G, 0 hr): 100%
Stability (%) ([4]; Solvent H3G, 2 hr): 108%
Stability (%) ([4]; Solvent H3G, 4 hr): 104%
Stability (%) ([4]; Solvent H3G, 6 hr): 101%
Stability (%) ([4]; Solvent H3G, 8 hr): 98%
Stability (%) ([4]; Solvent H3G, 24 hr): 103%
Stability (%) ([4]; parent solvent H3, approximately 4 mg/mL, room temperature, 14 (2 w)): 83%
Stability (%) ([4]; parent solvent H3, approximately 4 mg/mL, room temperature, 21 (3 w)): 79%
Stability (%) ([4]; parent solvent H3, approximately 4 mg/mL, room temperature, 28 (4 w)): 75%
Stability (%) ([4]; parent solvent H3, approximately 4 mg/mL, room temperature, 35 (5 w)): 77%
Stability (%) ([4]; parent solvent H3, approximately 4 mg/mL, room temperature, 49 (7 w)): 79%
Stability (%) ([4]; parent solvent H3, approximately 4 mg/mL, room temperature, 63 (9 w)): 75%
Stability (%) ([4]; parent solvent H3, approximately 4 mg/mL, room temperature, 24 hrs): 99%
Stability (%) ([4]; parent solvent H3, approximately 4 mg/mL, room temperature, 72 hrs): 95%
Stability (%) ([4]; parent solvent H3, approximately 4 mg/mL, room temperature, 96 hrs): 88%
Stability (%) ([4]; parent solvent H3, approximately 4 mg/mL, room temperature, 11 days): 77%
Stability (%) ([4]; parent solvent H3, approximately 4 mg/mL, room temperature, time 0): 100%
Stability (%) ([4]; solvent H3, approximately 4 mg/mL, 40° C., 3 hr): 104%
Stability (%) ([4]; solvent H3, approximately 4 mg/mL, 40° C., 6 hr): 98%
Stability (%) ([4]; solvent H3, approximately 4 mg/mL, 40° C., 24 hr): 92%
Stability (%) ([4]; solvent H3, approximately 4 mg/mL, 40° C., 30 hr): 89%
Stability (%) ([4]; solvent H3, approximately 4 mg/mL, 40° C., 48 hr): 84%
Stability (%) ([4]; solvent H3, approximately 4 mg/mL, 40° C., 54 hr): 79%
Stability (%) ([4]; solvent H3, approximately 4 mg/mL, 40° C., 78 hr): 80%
Stability (%) ([4]; solvent H3, approximately 4 mg/mL, 40° C., 4 days): 78%
Stability (%) ([4]; solvent H3, approximately 4 mg/mL, 40° C., 7 days): 70%
Stability (%) ([4]; solvent H3, approximately 4 mg/mL, 40° C., 8 days): 70%
Stability (%) ([4]; solvent H3, approximately 4 mg/mL, 40° C., 9 days): 58%
Stability (%) ([4]; solvent H3, approximately 4 mg/mL, 40° C., 14 days): 56%
Stability (%) ([4]; solvent H3, approximately 4 mg/mL, 40° C., 16 days): 55%
Stability (%) ([4]; solvent H3, approximately 4 mg/mL, 40° C., 18 days): 54%
Stability (%) ([4]; solvent H3, approximately 4 mg/mL, 40° C., 21 days): 45%
Stability (%) ([4]; solvent H3, approximately 4 mg/mL, 40° C., 25 days): 37%
Stability (%) ([4]; solvent H3, approximately 4 mg/mL, 40° C., 28 days): 30%
Stability (%) ([4]; solvent H3, approximately 4 mg/mL, 40° C., 32 days): 24%
Stability (%) ([4]; solvent H3/normal saline (1:1), approximately 2.0 mg/mL, RT, 0 hrs): 100%
Stability (%) ([4]; solvent H3/normal saline (1:1), approximately 2.0 mg/mL, RT, 2 hrs): 97%
Stability (%) ([4]; solvent H3/normal saline (1:1), approximately 2.0 mg/mL, RT, 4 hrs): 97%
Stability (%) ([4]; solvent H3/normal saline (1:1), approximately 2.0 mg/mL, RT, 8 hrs): 102%
Stability (%) ([4]; solvent H3/normal saline (1:1), approximately 2.0 mg/mL, RT, 14 hrs): 109%
Stability (%) ([4]; solvent H3/normal saline (1:1), approximately 2.0 mg/mL, RT, 24 hrs): 93%
known plasma half-life ([5]; literature (Ref 24, 32, 42, 45)): 10 to 11 h
bioavailability ([5]; oral preparations, literature): approximately 50%
time plasma concentrations remain in the fungi-toxic range [6]: in excess of one hour
